“Also recorded” adds a separate entry of the source. Where a SMILES comes first, the peptide text is derived from it. The star is where a group is joined. Cbz = O=C(OCc1ccccc1)*
Experiments:
[1] = system: IDH1 and IDH2; test: Immunoblot of IDH1 and IDH2 after MG132 or MLN4924, RWPE1 cells; type: cell-based; details: 10 μM for 8 hours
Experimental: RWPE1 cells were incubated with 10 μM MG132 or MLN4924 for 8 hours, followed by immunoblot analysis of IDH1 and IDH2. FIG. 16B are immunoblots showing that IDH1 specifically interacts with Cullin 1 in cells. Immunoblot analysis of immunoprecipitates (IP) and whole cell lysates (WCL) derived from HEK293 cells transfected with Flag-IDH1 and the indicated Myc-tagged Cullins for 48 hours. FIG. 16C are immunoblots showing that IDH1 specifically interacts with two F-box proteins, Skp2, and to a lesser extent, Fbw4, in cells. Immunoblot analysis of IP and WCL derived from HEK293 cells transfected with Flag-IDH1 and the indicated CMV-GST-tagged F-box proteins for 48 hours. FIG. 16D are immunoblots showing depletion of SKP2 in HeLa cells leads to accumulated IDH1. […] The labeled glycolytic intermediates were measured using HPLC-MS. n=3, * p<0.05, ** p<0.01, ***p<0.001. […] The labeled TCA cycle intermediates were measured using HPLC-MS. n=3, * p<0.05, ** p<0.01, *** p<0.001.
(§1) Cells were lysed in EBC buffer (50 mM Tris pH 7.5, 120 mM NaCl, 0.5% NP-40) supplemented with protease inhibitors (cOmplete Mini, Roche) and phosphatase inhibitors (phosphatase inhibitor cocktail set I and II, Calbiochem). The protein concentrations of the lysates were measured using the Bio-Rad protein assay reagent on a Beckman Coulter DU-800 spectrophotometer. […]

[2] = system: 22-Rv1 cells; test: Colony formation assay, 22-Rv1 cells; type: cell-based, human; details: 22-Rv1, 1500 cell/well, 0, 0.1, 0.3, or 1 μM for 7 days, fresh media another 3 weeks
Experimental: (§2) 22-Rv1 cells were treated with 0, 1, 3, 10, or 30 μM SKPin C1 for 24 hours, and then harvested for immunoblot analysis. […] LNCaP and 22-Rv1 cells were plated in 6-well plate (1500 cell/well), treated with 0, 0.1, 0.3, or 1 μM Skin C1 for 7 days, and changed to fresh media for another 3 weeks. […] HAP1-IDH1^−/−, HAP1-IDH2^−/− and parental cells were treated with 3 μM SKPin C1 for 24 hours, followed by OCR analysis by Seahorse XF 24 analyzer. * p<0.05.
(§3) Cells were cultured in 10% FBS containing DMEM or RPMI-1640 media before plating into 6-well plate at 10,000 cells (3,000 cells for HeLa) per well. Ten days later, cells were fixed with 10% acetic acid/10% methanol for 10 min, stained with 0.4% crystal violet/20% ethanol, followed by counting the colony numbers. For soft agar assays, cells were seeded in 0.4% low-melting-point agarose in DMEM or RPMI-1640 with 10% FBS at 100,000 per well (30,000 cells for HeLa), layered onto 0.8% agarose in DMEM or RPMI-1640 with 10% FBS. The plates were kept in the cell culture incubator for 3-4 weeks after which the cells were stained with iodonitrotetrazolium chloride and colonies were counted.

[3] = system: HAP1 cells; test: Seahorse XF24 oxygen consumption rate (OCR) analysis, HAP1 cells; type: cell-based, human
Experimental: (§4) LNCaP cells were treated with 0, 1, 3, 10 or 30 μM SKPin C1 for 24 hours, harvested for immunoblot analysis of indicated proteins. […] 22Rv1 cells were treated with 10 μM SKPin C1 for 24 hours, harvested for fraction of cytoplasm (C), mitochondria (M), and nuclei (N), followed by immunoblot analysis of indicated proteins. FIG. 11C is a graph showing depletion of endogenous ID111 or IDH2 abolishes the effect of SKPin C1 on OCR. HAP1-IDH1^−/−, IDH2^−/− and parental cells were treated with 3 μM SKPin C1 for 24 hours, followed by OCR analysis by Seahorse XF 24 analyzer. The concentration of oligomycin, FCCP and antimycin A are 1 μM, 0.6 μM and 3 μM, respectively (mean±s.e.m, n=3). […] HAP1-Skp2^+/+ and Skp2^−/− cells were treated with indicated SKPin C1 for 24 hours, followed by immunoblot analysis for indicated proteins. […] Statistical analysis, ** p<0.01. […] Statistical analysis, * p<0.05, ** p<0.01. […] HAP1-Skp2^+/+ and Skp2^−/− cells were treated with 1 μM SKPin C1 for 24 hours, followed by ECAR analysis by Seahorse XF 24 analyzer. […] HAP1-Skp2^+/+ and Skp2^−/− cells were treated with 1 μM SKPin C1 for 24 hours, followed by OCR analysis by Seahorse XF 24 analyzer. […]
(§5) Oxygen consumption rate (OCR) and extracellular acidification rate (ECAR) were measured using Seahorse XF24 analyzer (Boston, Mass., USA). […]

[4] = system: IDH1 and IDH2; test: Immunoblot of IDH1 and IDH2 after SKPin C1 treatment, 22-Rv1 cells; type: cell-based, human; details: 22-Rv1 cells, 0, 1, 3, 10, or 30 μM for 24 hours
Experimental: as §2
HeLa and HCT116 cells were used for synchronization. HeLa cells, which have low endogenous Skp2 activity, were used for ectopic expression-based degradation assays. HEK293 cell line was used for ubiquitination assays and co-IP assays to define the interaction between two ectopically expressed proteins, which is the most frequently used cell line for this type of experiment. Human prostate cancer cells, DU145, PC3, LNCaP, VCaP, 22Rv1 and C4-2 were used for compared endogenous Skp2 and IDH1 levels, as well as Skp2 knockdown and Skp2 overexpression. […]
as §1

[5] = system: LNCaP cells; test: Colony formation assay, LNCaP cells; type: cell-based, human; details: 1500 cell/well, 0, 0.1, 0.3, or 1 μM for 7 days, fresh media another 3 weeks
Experimental: as §2, §3

[6] = system: HAP1 cells; test: Seahorse XF24 extracellular acidification rate (ECAR) analysis, HAP1 cells; type: cell-based, human; details: 1 μM for 24 hours
Experimental: as §4, §5

[7] = system: IDH1 and IDH2; test: Immunoblot of IDH1 and IDH2 in HAP1-Skp2+/+ and Skp2-/- cells; type: cell-based, human; details: 24 hours
Experimental: (§6) LNCaP cells were treated with 0, 1, 3, 10 or 30 μM SKPin C1 for 24 hours, harvested for immunoblot analysis of indicated proteins. […] 22Rv1 cells were treated with 10 μM SKPin C1 for 24 hours, harvested for fraction of cytoplasm (C), mitochondria (M), and nuclei (N), followed by immunoblot analysis of indicated proteins. FIG. 11C is a graph showing depletion of endogenous ID111 or IDH2 abolishes the effect of SKPin C1 on OCR. HAP1-IDH1^−/−, IDH2^−/− and parental cells were treated with 3 μM SKPin C1 for 24 hours, followed by OCR analysis by Seahorse XF 24 analyzer. The concentration of oligomycin, FCCP and antimycin A are 1 μM, 0.6 μM and 3 μM, respectively (mean±s.e.m, n=3). […] HAP1-Skp2^+/+ and Skp2^−/− cells were treated with indicated SKPin C1 for 24 hours, followed by immunoblot analysis for indicated proteins. […] Statistical analysis, ** p<0.01. […] Statistical analysis, * p<0.05, ** p<0.01. […]
as §1

[8] = system: IDH1 and IDH2; test: Fractionation of cytoplasm, mitochondria and nuclei with immunoblot, 22Rv1 cells; type: cell-based, human; details: 10 μM for 24 hours
Experimental: LNCaP cells were treated with 0, 1, 3, 10 or 30 μM SKPin C1 for 24 hours, harvested for immunoblot analysis of indicated proteins. […] 22Rv1 cells were treated with 10 μM SKPin C1 for 24 hours, harvested for fraction of cytoplasm (C), mitochondria (M), and nuclei (N), followed by immunoblot analysis of indicated proteins. FIG. 11C is a graph showing depletion of endogenous ID111 or IDH2 abolishes the effect of SKPin C1 on OCR. HAP1-IDH1^−/−, IDH2^−/− and parental cells were treated with 3 μM SKPin C1 for 24 hours, followed by OCR analysis by Seahorse XF 24 analyzer. The concentration of oligomycin, FCCP and antimycin A are 1 μM, 0.6 μM and 3 μM, respectively (mean±s.e.m, n=3). […] HAP1-Skp2^+/+ and Skp2^−/− cells were treated with indicated SKPin C1 for 24 hours, followed by immunoblot analysis for indicated proteins. […] Statistical analysis, ** p<0.01. […] Statistical analysis, * p<0.05, ** p<0.01. […] HAP1-Skp2^+/+ and Skp2^−/− cells were treated with 1 μM SKPin C1 for 24 hours, followed by ECAR analysis by Seahorse XF 24 analyzer. […] HAP1-Skp2^+/+ and Skp2^−/− cells were treated with 1 μM SKPin C1 for 24 hours, followed by OCR analysis by Seahorse XF 24 analyzer. The concentration of oligomycin, FCCP and antimycin A are 1 μM, 0.6 μM and 3 μM, respectively (mean±s.e.m, n=3, ** p<0.01, *** p<0.001).
Cells were harvested and subjected to fractionation of cytoplasm (C), mitochondria (M), and nuclei (N) using Cell Fractionation kit (ab109719, Abcam). All fractions and the whole cell lysate (WCL) were subjected to immunoblot analysis for the indicated proteins, with tubulin, citrate synthase, and Histone H3 as markers of cytoplasm, mitochondria, and nucleus, respectively.

[9] = system: IDH1 and IDH2; test: Immunoblot of IDH1 and IDH2 after SKPin C1 treatment, LNCaP cells; type: cell-based, human; details: LNCaP cells, 0, 1, 3, 10 or 30 μM for 24 hours
Experimental: as §6, §1

CC(C)C[C@@H](C=O)NC(=O)[C@H](CC(C)C)NC(=O)[C@H](CC(C)C)NC(=O)OCc1ccccc1 [MG132] (Cbz-Leu-Leu-Leu-aldehyde)
IDH1 and IDH2 protein abundance (immunoblot) [1]: elevated; also recorded: accumulation of IDH1 and IDH2

NS(=O)(=O)OC[C@@H]1C[C@@H](n2ccc3c(N[C@H]4CCc5ccccc54)ncnc32)C[C@@H]1O [MLN4924]
IDH1 and IDH2 protein abundance (immunoblot) [1]: elevated; also recorded: accumulation of IDH1 and IDH2

O=C(O)COc1ccc(Br)cc1/C=C1\SC(=S)N(Cc2cccnc2)C1=O [SKPin C1]
Colony growth [2]: blocks the colony growth | Effect on OCR in HAP1-Skp2+/+ and Skp2-/- cells ([3]; 1 μM for 24 hours): depletion of Skp2 abolishes the effect of SKPin C1 on OCR | Effect on OCR in HAP1-IDH1-/-, HAP1-IDH2-/- and parental cells ([3]; 3 μM for 24 hours): depletion of endogenous IDH1 or IDH2 abolishes the effects of SKPin C1 on OCR | IDH1 and IDH2 protein abundance (immunoblot) [4]: significantly stabilized both IDH1 and IDH2; also recorded: robust accumulation of IDH1 and IDH2 | Colony growth [5]: blocks the colony growth | Effect on ECAR in HAP1-Skp2+/+ and Skp2-/- cells [6]: depletion of Skp2 abolishes the effect of SKPin C1 on ECAR | Effect on IDH1 and IDH2 in HAP1-Skp2+/+ and Skp2-/- cells [7]: depletion of Skp2 abolishes the effect of SKPin C1 on IDH1 and IDH2 | IDH1 localization after treatment [8]: mainly localized in the cytoplasmic fraction regardless of SKPin C1 treatment | IDH2 localization after treatment [8]: detected in the cytoplasmic fraction | IDH1 and IDH2 protein abundance in cell fractions ([8]; cytoplasm/mitochondria/nuclei fractions): accumulated protein abundance of IDH1 and IDH2 in cytoplasm | IDH1 and IDH2 protein abundance (immunoblot) [9]: significantly stabilized both IDH1 and IDH2; also recorded: accumulated protein abundance of IDH1 and IDH2

Source: US20210052598A1, “COMPOSITIONS AND METHODS FOR TREATING CANCER” (Beth Israel Deaconess Medical Center, Inc., priority 2018, published 2021)
